The target of one experiment is BTK (Homo sapiens (Human), UniProt Q06187). Put plainly: BTK enzyme experiment (ADP-Glo kinase assay). The settings on record: 10 nM BTK, ATP 125 μM, Poly(Glu4, Tyr1), 90 minutes at 20° C.; read-out: BTK(WT) IC50. Type of experiment: biochemical. In short, it runs like this: (§1)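 Wild-type or C481S BTK, added as 2× solution at 10 nM, preincubated 10 min with 3-fold compound dilutions in 50 mM HEPES pH 7.5, 10 mM MgCl2, 2 mM DTT, 0.0015% Brij-35. ADP-Glo luminescence norm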
Chain of BTK (Q06187 whole entry): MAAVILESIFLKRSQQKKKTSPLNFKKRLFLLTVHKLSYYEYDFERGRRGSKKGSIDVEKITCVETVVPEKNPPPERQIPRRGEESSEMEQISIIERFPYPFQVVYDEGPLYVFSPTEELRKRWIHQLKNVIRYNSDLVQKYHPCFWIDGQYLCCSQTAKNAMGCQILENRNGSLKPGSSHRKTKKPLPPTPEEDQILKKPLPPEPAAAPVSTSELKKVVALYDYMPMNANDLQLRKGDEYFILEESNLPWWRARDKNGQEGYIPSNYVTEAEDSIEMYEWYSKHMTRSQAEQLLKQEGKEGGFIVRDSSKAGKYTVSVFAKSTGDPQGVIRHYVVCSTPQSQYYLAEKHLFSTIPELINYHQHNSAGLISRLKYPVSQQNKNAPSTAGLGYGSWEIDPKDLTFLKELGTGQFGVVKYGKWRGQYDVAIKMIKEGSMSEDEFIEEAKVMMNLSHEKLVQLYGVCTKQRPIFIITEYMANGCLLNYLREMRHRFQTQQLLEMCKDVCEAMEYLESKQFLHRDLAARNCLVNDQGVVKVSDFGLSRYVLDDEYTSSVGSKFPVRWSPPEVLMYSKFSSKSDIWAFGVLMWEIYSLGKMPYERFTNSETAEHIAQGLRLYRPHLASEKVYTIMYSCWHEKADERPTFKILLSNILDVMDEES

The target of the next experiment is BTK (C481S) (Homo sapiens (Human), UniProt Q06187, C481S). Put plainly: BTK C481S enzyme experiment (ADP-Glo kinase assay). Type of experiment: biochemical. The settings on record: 10 nM BTK C481S, ATP 125 μM, Poly(Glu4, Tyr1), 90 minutes at 20° C. In short, it runs like this:
as §1
(ADP-Glo first removes unused ATP, then detects ADP through luciferase.)

In another experiment the target is p-BTK (WT) (Homo sapiens (Human), UniProt Q06187). The experiment can be described thus: p-BTK cell experiment, HEK293 transfected with WT-BTK plasmid (P-BTK Y223 sandwich ELISA). Type of experiment: cell-based. The settings on record: HEK293 cells, compound cultured for two hours. On the procedure:
(§2) Day 1: HEK293 cells (ADDEXBIO, T0011001) at logarithmic growth phase were taken, digested with enzyme EDTA, collected and counted, and 2E6 cells were inoculated in a 10 cm culture dish and cultured overnight. Day 2: A mixed solution containing 6 μg of WT-BTK/C481S-BTK plasmid and 18 μL of FuGENE HD transfection reagent was prepared by using 1000 μL of Opti-MEM. After standing at room temperature for 10 minutes, the mixed solution was slowly added to the culture dish with a pipettor and cultured overnight. Day 3: The culture dish was taken out, and the cells were digested with enzyme EDTA, collected and counted, and 1E4 cells were inoculated in a 96-well cell culture plate and cultured overnight. A 3.16-fold gradient concentration stock solution of 1000× compound was prepared using DMSO, and placed at room temperature. Day 4: A prepared 1000× compound stock solution was taken, and diluted 200-fold to 5× compound stock solution with culture medium. 5× compound stock solution was added to each cell culture well with a final concentration of 1× compound stock solution and a DMSO content of 0.1%. DMSO was used as an experimental control. After the compound was added and cultured for two hours, the residual culture medium was removed. 100 μL of cell lysis buffer was added to each well, stood on ice for 30 minutes, and ultrasonically lysed with ice water for 5 minutes. After diluting the cell lysate in proportion, 80 μL of the mixture was transfer to an ELISA plate, and 80 μL of cell lysis buffer was added to the blank well. After incubating in an incubator at 37° C. for 2 hours, the plate was taken and the antibody incubation and color development termination operation were completed according to the instructions of Pathscan P-BTK (Y223) Sandwich ELISA Kit (Cell Signaling #23843 CA), and finally the OD value was read. The inhibition rate of the compound (%)=(ODcontrol−ODcompound)/(ODcontrol−ODblank)×100% was calculated. The compound gradient dilution concentration and the corresponding cell proliferation inhibition rate were fit by using Prism 8 four-parameter method, and IC50 value was calculated.

In a further experiment the target is p-BTK (C481S) (Homo sapiens (Human), UniProt Q06187, C481S). The experiment can be described thus: p-BTK cell experiment, HEK293 transfected with C481S-BTK plasmid (P-BTK Y223 sandwich ELISA). It is filed as cell-based. The settings on record: HEK293 cells, compound cultured for two hours. How it is done:
as §2
In general terms: ELISA stands for enzyme-linked immunosorbent assay.

In the next experiment the test system is TMD-8 cells. Put plainly: TMD-8 proliferation inhibition experiment. Particulars: human diffuse large B lymphoma cells, three days incubation. Type of experiment: cell-based. In outline:
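Log-phase cells seeded in 384-well plates (600 TMD-8 in RPMI 1640, 2000 OCI-LY10 in IMDM, both 10% FBS), then exposed one day later to 3-fold compound dilutions at 0.25% DMSO for three days. ADP-Glo luminescence read; inhibition versus DMSO and medium-only blank, IC50 by four-parameter fit.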

Chain of p-BTK (WT) (Q06187 whole entry): as above
Chain of p-BTK (C481S) (Q06187 whole entry C481S): as the sequence (Q06187 whole entry) above, with C481S counted along it
Chain of BTK (C481S) (Q06187 whole entry C481S): as the sequence (Q06187 whole entry) above, with C481S counted along it

With `COC[C@]1(C)Nc2c(cnc3[nH]cc(C(=O)c4ccc(Oc5ccccc5F)cc4Cl)c23)NC1=O` [Z155, (S)-9-(2-chloro-4-(2-fluorophenoxy)benzoyl)-2-(methoxymethyl)-2-methyl-1,2,4,7-tetrahydro-3H-pyrrolo[3′,2′:5,6]pyrido[3,4-b]pyrazin-3-one], the half-maximal inhibitory concentration (IC50) (commonly the concentration needed to halve the response being measured) worked out at 8.6 nM at BTK; 10.6 nM against BTK (C481S); 28 nM at p-BTK (WT); 48.2 nM against p-BTK (C481S); 87 nM in the experiment on TMD-8 cells (Homo sapiens, TMD8, 72 h).

On to `[2H]C([2H])([2H])OC[C@]1(C)Nc2c(cnc3[nH]cc(C(=O)c4ccc(Oc5ccccc5)cc4Cl)c23)NC1=O` (single isomer, unassigned) [Z66-1], for which the IC50 on BTK stood at 6.7 nM; on BTK (C481S), 3.8 nM; on p-BTK (WT), 29.6 nM; against p-BTK (C481S), 38.1 nM; in the experiment with TMD-8 cells (Homo sapiens, TMD8, 72 h) it was 94.8 nM.

As to `O=C(c1ccc(Oc2ccccc2)cc1Cl)c1c[nH]c2ncc3c(c12)N[C@@]1(CCCOC1)C(=O)N3` (single isomer, unassigned) [Z16-2], the concentration for half-maximal inhibition (IC50) is 5 nM on BTK; 5.6 nM against BTK (C481S); 10.4 nM against p-BTK (WT); 10.4 nM against p-BTK (C481S); 23 nM in the experiment on TMD-8 cells.

As to `O=C(c1ccc(Oc2ccccc2)cc1Cl)c1c[nH]c2ncc3c(c12)N[C@]1(CCCOC1)C(=O)N3` (single isomer, unassigned) [Z16-1], the IC50 at BTK stood at 7.6 nM; against BTK (C481S), 9.1 nM; at p-BTK (WT) it was 17.3 nM; against p-BTK (C481S) it was 36.6 nM; in the experiment on TMD-8 cells, 42.8 nM.

With `O=C(c1ccc(Oc2ccccc2)cc1Cl)c1c[nH]c2ncc3c(c12)NC1(CCOCC1)C(=O)N3` [Z14], the IC50 on BTK came out at 7.6 nM; at BTK (C481S), 5.1 nM; against p-BTK (WT), 31.5 nM; against p-BTK (C481S) it was 27.6 nM; with TMD-8 cells, 57 nM.

As for `COC[C@@]1(C)Nc2c(cnc3[nH]cc(C(=O)c4ccc(Oc5ccccc5)cc4F)c23)NC1=O` (single isomer, unassigned) [Z71-1], the IC50 on BTK was found to be 8.5 nM; against BTK (C481S) it was 8.3 nM; on p-BTK (WT), 32.3 nM; against p-BTK (C481S), 40.3 nM; in the experiment on TMD-8 cells, 180 nM.

`COCC[C@]1(C)Nc2c(cnc3[nH]cc(C(=O)c4ccc(Oc5ccccc5)cc4Cl)c23)NC1=O` [Z78-2]: the IC50 on BTK was found to be 10.2 nM; on BTK (C481S) it was 17.4 nM; against p-BTK (WT) it was 68.3 nM; at p-BTK (C481S), 119 nM; in the experiment with TMD-8 cells, 254 nM.

In the case of `CCOC[C@]1(C)Nc2c(cnc3[nH]cc(C(=O)c4ccc(Oc5ccccc5)cc4Cl)c23)NC1=O` (single isomer, unassigned) [Z67-1], the IC50 is 9.6 nM at BTK; 10.3 nM against BTK (C481S); 37.3 nM on p-BTK (WT); 42.6 nM on p-BTK (C481S); 161 nM in the experiment on TMD-8 cells (Homo sapiens, TMD8, 72 h).

Consider `COC1CCC2(C1)Nc1c(cnc3[nH]cc(C(=O)c4ccc(Oc5ccccc5)cc4Cl)c13)NC2=O` (single isomer, unassigned) [Z25-2, 9′-(2-chloro-4-phenoxybenzoyl)-3-methoxy-4′,7′-dihydrospiro[cyclopentane-1,2′-pyrrolo[3′,2′:5,6]pyrido[3,4-b]pyrazin]-3′(1′H)-one], for which the IC50 at BTK was 14.7 nM; at BTK (C481S), 8.7 nM; against p-BTK (WT) it was 15.2 nM; against p-BTK (C481S) it was 32.7 nM; with TMD-8 cells, 80.4 nM.

For the compound `O=C(c1ccc(Oc2ccccc2)cc1Cl)c1c[nH]c2ncc3c(c12)N[C@]1(CC[C@H](O)C1)C(=O)N3` (single isomer, unassigned) [Z24-b], the half-inhibitory concentration (IC50) at BTK stood at 4.2 nM; against BTK (C481S), 5.8 nM; against p-BTK (WT), 39.5 nM; against p-BTK (C481S), 39 nM; in the experiment with TMD-8 cells, 80.8 nM.

Values taken from patent US20240360154A1, “AROYL SUBSTITUTED TRICYCLIC COMPOUND, PREPARATION METHOD THEREFOR AND USE THEREOF” (GENFLEET THERAPEUTICS (SHANGHAI) INC., priority 2020, published 2024).
